Assay results from US11076594B2, “Pyrazolone compound or salt thereof, preparation method therefor, herbicide composition and use thereof” (QINGDAO KINGAGROOT CHEMICAL COMPOUNDS CO., LTD., priority 2015, dated 2021).

What was measured:
Type in all cases: in vivo
Conditions in all cases: post-emergence spray at 4-5 leaf stage, 250 g/ha active ingredient with 450 kg/ha water, rated after 3 weeks in greenhouse
[1] = tested on: Indian mallow; assay: weed control effect in post-emergence stage (Table 1); set-up: key: Level 10: completely dead; Level 9: above 95% growth control rate; Level 8: above 90% growth control rate; Level 7: above 80% growth control rate; Level 6: above 70% growth control rate; Level 5: above 60% growth control rate; Level 4: above 50% growth control rate; Level 3: above 20% growth control rate; Level 2: 5%-20% growth control rate; Level 1: below 5% growth control rate
Outline: (§1)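 Weeds and crops grown in soil-filled pots in a greenhouse were sprayed at the 4-5 leaf stage (2-3 weeks after sowing). Compounds were applied in acetone with tween 80, diluted in water. After 3 weeks' culture, growth control was scored as fresh weight control rate.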

[2] = tested on: bidens bipinnata; assay: as above; set-up: key: Level 10: completely dead; Level 9: above 95% growth control rate; Level 8: above 90% growth control rate; Level 7: above 80% growth control rate; Level 6: above 70% growth control rate; Level 5: above 60% growth control rate; Level 4: above 50% growth control rate; Level 3: above 20% growth control rate; Level 2: 5%-20% growth control rate; Level 1: below 5% growth control rate
Outline: as §1

[3] = tested on: crab grass; assay: as above; set-up: key: Level 10: completely dead; Level 9: above 95% growth control rate; Level 8: above 90% growth control rate; Level 7: above 80% growth control rate; Level 6: above 70% growth control rate; Level 5: above 60% growth control rate; Level 4: above 50% growth control rate; Level 3: above 20% growth control rate; Level 2: 5%-20% growth control rate; Level 1: below 5% growth control rate
Outline: as §1

[4] = tested on: echinochloa; assay: as above; set-up: key: Level 10: completely dead; Level 9: above 95% growth control rate; Level 8: above 90% growth control rate; Level 7: above 80% growth control rate; Level 6: above 70% growth control rate; Level 5: above 60% growth control rate; Level 4: above 50% growth control rate; Level 3: above 20% growth control rate; Level 2: 5%-20% growth control rate; Level 1: below 5% growth control rate
Outline: as §1

[5] = tested on: foxtail; assay: as above; set-up: key: Level 10: completely dead; Level 9: above 95% growth control rate; Level 8: above 90% growth control rate; Level 7: above 80% growth control rate; Level 6: above 70% growth control rate; Level 5: above 60% growth control rate; Level 4: above 50% growth control rate; Level 3: above 20% growth control rate; Level 2: 5%-20% growth control rate; Level 1: below 5% growth control rate
Outline: as §1

[6] = tested on: rorippa indica; assay: as above; set-up: key: Level 10: completely dead; Level 9: above 95% growth control rate; Level 8: above 90% growth control rate; Level 7: above 80% growth control rate; Level 6: above 70% growth control rate; Level 5: above 60% growth control rate; Level 4: above 50% growth control rate; Level 3: above 20% growth control rate; Level 2: 5%-20% growth control rate; Level 1: below 5% growth control rate
Outline: as §1

[7] = tested on: corn; assay: post-emergence stage experiment, crop (Table 1)
Outline: as §1

[8] = tested on: wheat; assay: post-emergence stage experiment, crop (Table 1)
Outline: as §1

[9] = tested on: rice; assay: post-emergence stage experiment, crop (Table 1); set-up: key: Level 10: completely dead; Level 9: above 95% growth control rate; Level 8: above 90% growth control rate; Level 7: above 80% growth control rate; Level 6: above 70% growth control rate; Level 5: above 60% growth control rate; Level 4: above 50% growth control rate; Level 3: above 20% growth control rate; Level 2: 5%-20% growth control rate; Level 1: below 5% growth control rate
Outline: as §1

In the case of `CCn1ncc(C(=O)c2ccc(C(F)(F)F)c(N3CCCC3=O)c2Cl)c1OC(=O)c1cn(C)nc1C` [Compound 097], the “weed control effect, Indian mallow (level)” value [1] was 10, the “weed control effect, Bidens bipinnata (level)” value [2] was 10 and the “weed control effect, Crab grass (level)” value [3] was 3 (Level 3: above 20% growth control rate). The “weed control effect, Echinochloa (level)” value [4] was 10, the “weed control effect, Green foxtail (level)” value [5] was 10 and the “weed control effect, Rorippa indica (level)” value [6] was 10. The “effect on crop, Corn (level)” value [7] was 1 (Level 1: below 5% growth control rate), the “effect on crop, Wheat (level)” value [8] was 1 (Level 1: below 5% growth control rate) and the “effect on crop, Rice (level)” value [9] was 7 (Level 7: above 80% growth control rate).

With `CCn1nc(C)c(C(=O)c2ccc(C(F)(F)F)c(N3CCCC3=O)c2Cl)c1OC(=O)c1cn(C)nc1C` [Compound 099] the “weed control effect, Indian mallow (level)” value [1] was 3 (Level 3: above 20% growth control rate), the “weed control effect, Bidens bipinnata (level)” value [2] was 10 and the “weed control effect, Crab grass (level)” value [3] was 10. For the same compound, the “weed control effect, Echinochloa (level)” value [4] was 10, the “weed control effect, Green foxtail (level)” value [5] was 10 and the “weed control effect, Rorippa indica (level)” value [6] was 10. The “effect on crop, Corn (level)” value [7] was 4 (Level 4: above 50% growth control rate), the “effect on crop, Wheat (level)” value [8] was 4 (Level 4: above 50% growth control rate) and the “effect on crop, Rice (level)” value [9] was 10.

For `CCc1nn(C)c(O)c1C(=O)c1ccc(C(F)(F)F)c(N2CCCC2=O)c1Cl` [Compound 100], the “weed control effect, Indian mallow (level)” value [1] was 9 (Level 9: above 95% growth control rate), the “weed control effect, Bidens bipinnata (level)” value [2] was 9 (Level 9: above 95% growth control rate) and the “weed control effect, Crab grass (level)” value [3] was 3 (Level 3: above 20% growth control rate). For the same compound, the “weed control effect, Echinochloa (level)” value [4] was 10, the “weed control effect, Green foxtail (level)” value [5] was 10 and the “weed control effect, Rorippa indica (level)” value [6] was 10. The “effect on crop, Corn (level)” value [7] was 2 (Level 2: 5%-20% growth control rate), the “effect on crop, Wheat (level)” value [8] was 2 (Level 2: 5%-20% growth control rate) and the “effect on crop, Rice (level)” value [9] was 10.

In the case of `CCc1nn(C)c(OC(=O)c2cn(C)nc2C)c1C(=O)c1ccc(C(F)(F)F)c(N2CCCC2=O)c1Cl` [Compound 101], the “weed control effect, Indian mallow (level)” value [1] was 10, the “weed control effect, Bidens bipinnata (level)” value [2] was 9 (Level 9: above 95% growth control rate) and the “weed control effect, Crab grass (level)” value [3] was 4 (Level 4: above 50% growth control rate). The “weed control effect, Echinochloa (level)” value [4] was 10, the “weed control effect, Green foxtail (level)” value [5] was 10 and the “weed control effect, Rorippa indica (level)” value [6] was 10. The “effect on crop, Corn (level)” value [7] was 2 (Level 2: 5%-20% growth control rate), the “effect on crop, Wheat (level)” value [8] was 3 (Level 3: above 20% growth control rate) and the “effect on crop, Rice (level)” value [9] was 10.

With `CCn1nc(C2CC2)c(C(=O)c2ccc(C(F)(F)F)c(N3CCCC3=O)c2Cl)c1O` [Compound 104] the “weed control effect, Indian mallow (level)” value [1] was 10, the “weed control effect, Bidens bipinnata (level)” value [2] was 7 (Level 7: above 80% growth control rate) and the “weed control effect, Crab grass (level)” value [3] was 9 (Level 9: above 95% growth control rate). The “weed control effect, Echinochloa (level)” value [4] was 10, the “weed control effect, Green foxtail (level)” value [5] was 10 and the “weed control effect, Rorippa indica (level)” value [6] was 10. For the same compound, the “effect on crop, Corn (level)” value [7] was 4 (Level 4: above 50% growth control rate), the “effect on crop, Wheat (level)” value [8] was 5 (Level 5: above 60% growth control rate) and the “effect on crop, Rice (level)” value [9] was 10.

With `CCn1nc(C2CC2)c(C(=O)c2ccc(C(F)(F)F)c(N3CCCC3=O)c2Cl)c1OC(=O)c1cn(C)nc1C` [Compound 105] the “weed control effect, Indian mallow (level)” value [1] was 9 (Level 9: above 95% growth control rate), the “weed control effect, Bidens bipinnata (level)” value [2] was 10 and the “weed control effect, Crab grass (level)” value [3] was 10. For the same compound, the “weed control effect, Echinochloa (level)” value [4] was 10, the “weed control effect, Green foxtail (level)” value [5] was 10 and the “weed control effect, Rorippa indica (level)” value [6] was 10. The “effect on crop, Corn (level)” value [7] was 5 (Level 5: above 60% growth control rate), the “effect on crop, Wheat (level)” value [8] was 5 (Level 5: above 60% growth control rate) and the “effect on crop, Rice (level)” value [9] was 10.

In the case of `CCn1ncc(C(=O)c2ccc(C(F)(F)F)c(N3CCCCC3=O)c2Cl)c1O` [Compound 106], the “weed control effect, Indian mallow (level)” value [1] was 7 (Level 7: above 80% growth control rate), the “weed control effect, Bidens bipinnata (level)” value [2] was 6 (Level 6: above 70% growth control rate) and the “weed control effect, Crab grass (level)” value [3] was 6 (Level 6: above 70% growth control rate). For the same compound, the “weed control effect, Echinochloa (level)” value [4] was 10, the “weed control effect, Green foxtail (level)” value [5] was 3 (Level 3: above 20% growth control rate) and the “weed control effect, Rorippa indica (level)” value [6] was 5 (Level 5: above 60% growth control rate). For the same compound, the “effect on crop, Corn (level)” value [7] was 3 (Level 3: above 20% growth control rate), the “effect on crop, Wheat (level)” value [8] was 3 (Level 3: above 20% growth control rate) and the “effect on crop, Rice (level)” value [9] was 9 (Level 9: above 95% growth control rate).

`CCn1ncc(C(=O)c2ccc(C(F)(F)F)c(N3CCCCC3=O)c2Cl)c1OC(=O)c1cn(C)nc1C` [Compound 107] was tested, and the “weed control effect, Indian mallow (level)” value [1] was 10, the “weed control effect, Bidens bipinnata (level)” value [2] was 9 (Level 9: above 95% growth control rate) and the “weed control effect, Crab grass (level)” value [3] was 8 (Level 8: above 90% growth control rate). The “weed control effect, Echinochloa (level)” value [4] was 10, the “weed control effect, Green foxtail (level)” value [5] was 10 and the “weed control effect, Rorippa indica (level)” value [6] was 6 (Level 6: above 70% growth control rate). The “effect on crop, Corn (level)” value [7] was 5 (Level 5: above 60% growth control rate), the “effect on crop, Wheat (level)” value [8] was 5 (Level 5: above 60% growth control rate) and the “effect on crop, Rice (level)” value [9] was 8 (Level 8: above 90% growth control rate).

`CCc1nn(C)c(O)c1C(=O)c1ccc(C(F)(F)F)c(N2CCCCC2=O)c1Cl` [Compound 110] was tested, and the “weed control effect, Indian mallow (level)” value [1] was 9 (Level 9: above 95% growth control rate), the “weed control effect, Bidens bipinnata (level)” value [2] was 5 (Level 5: above 60% growth control rate) and the “weed control effect, Crab grass (level)” value [3] was 2 (Level 2: 5%-20% growth control rate). The “weed control effect, Echinochloa (level)” value [4] was 9 (Level 9: above 95% growth control rate), the “weed control effect, Green foxtail (level)” value [5] was 10 and the “weed control effect, Rorippa indica (level)” value [6] was 10. The “effect on crop, Corn (level)” value [7] was 0, the “effect on crop, Wheat (level)” value [8] was 2 (Level 2: 5%-20% growth control rate) and the “effect on crop, Rice (level)” value [9] was 10.

With `CCc1nn(CC)c(O)c1C(=O)c1ccc(C(F)(F)F)c(N2CCCCC2=O)c1Cl` [Compound 112] the “weed control effect, Indian mallow (level)” value [1] was 5 (Level 5: above 60% growth control rate), the “weed control effect, Bidens bipinnata (level)” value [2] was 1 (Level 1: below 5% growth control rate) and the “weed control effect, Crab grass (level)” value [3] was 6 (Level 6: above 70% growth control rate). The “weed control effect, Echinochloa (level)” value [4] was 10, the “weed control effect, Green foxtail (level)” value [5] was 5 (Level 5: above 60% growth control rate) and the “weed control effect, Rorippa indica (level)” value [6] was 2 (Level 2: 5%-20% growth control rate). The “effect on crop, Corn (level)” value [7] was 3 (Level 3: above 20% growth control rate), the “effect on crop, Wheat (level)” value [8] was 3 (Level 3: above 20% growth control rate) and the “effect on crop, Rice (level)” value [9] was 7 (Level 7: above 80% growth control rate).

For `CCn1ncc(C(=O)c2ccc(C(F)(F)F)c(N3CCCCCC3=O)c2Cl)c1OC(=O)c1cn(C)nc1C` [Compound 117], the “weed control effect, Indian mallow (level)” value [1] was 9 (Level 9: above 95% growth control rate), the “weed control effect, Bidens bipinnata (level)” value [2] was 10 and the “weed control effect, Crab grass (level)” value [3] was 3 (Level 3: above 20% growth control rate). For the same compound, the “weed control effect, Echinochloa (level)” value [4] was 10, the “weed control effect, Green foxtail (level)” value [5] was 10 and the “weed control effect, Rorippa indica (level)” value [6] was 5 (Level 5: above 60% growth control rate). For the same compound, the “effect on crop, Corn (level)” value [7] was 0, the “effect on crop, Wheat (level)” value [8] was 0 and the “effect on crop, Rice (level)” value [9] was 9 (Level 9: above 95% growth control rate).

For `CCn1nc(C)c(C(=O)c2ccc(C(F)(F)F)c(N3CCCCCC3=O)c2Cl)c1O` [Compound 118], the “weed control effect, Indian mallow (level)” value [1] was 0, the “weed control effect, Bidens bipinnata (level)” value [2] was 1 (Level 1: below 5% growth control rate) and the “weed control effect, Crab grass (level)” value [3] was 1 (Level 1: below 5% growth control rate). The “weed control effect, Echinochloa (level)” value [4] was 9 (Level 9: above 95% growth control rate), the “weed control effect, Green foxtail (level)” value [5] was 10 and the “weed control effect, Rorippa indica (level)” value [6] was 5 (Level 5: above 60% growth control rate). For the same compound, the “effect on crop, Corn (level)” value [7] was 2 (Level 2: 5%-20% growth control rate), the “effect on crop, Wheat (level)” value [8] was 1 (Level 1: below 5% growth control rate) and the “effect on crop, Rice (level)” value [9] was 1 (Level 1: below 5% growth control rate).
